Where “and” joins values, the source holds several entries; their conditions need not be identical. Equal entries are not always repeated.
What was measured:
Assay type in all cases: in vivo, human
[1] = Plasma concentration levels of tradipitant in healthy subjects (Example 2)
Method: A study is conducted in which healthy subject participants are orally administered 85 mg tradipitant on study day 3, and then 85 mg tradipitant Q12H on study days 4-16. Plasma concentration levels of tradipitant are measured on each of day 3, day 7, and day 11.
This study illustrates that administration of 85 mg tradipitant qd (on day 3) produces an average plasma concentration over hours 0-12 that is about 50% of the plasma concentration observed in the PM group in Example 1. On days 7 and 11, the average plasma concentration over hours 0-12 following administration of 85 mg bid (specifically, Q12H) tradipitant is about 150% of the plasma concentration observed in the PM group in Example 1. The average plasma concentration over hours 0-12 at each point is determined by dividing the AUC for hours 0-12 (in (hr.)×(ng/mL)) by 12 hours.

[2] = system: chronic pruritus associated with atopic dermatitis; experiment: Phase II randomized double-blind placebo-controlled study NCT02651714 (Example 3); design: key to average itch VAS, difference / worst itch VAS, difference: VAS in mm, 0-100 mm scale; key to Average Itch VAS / worst Itch VAS: change in VAS, mm on 0-100 mm scale; CGI-C / SKINDEX-16 / Worst Itch NRS Night / worst itch NRS night, difference / CGIC, difference: scale not given here
Method: A phase II, multicenter, randomized, double-blind, placebo-controlled clinical study (“Tradipitant in Treatment-resistant Pruritus Associated with Atopic Dermatitis,” clinicaltrials.gov Study ID NCT02651714) is conducted to determine the efficacy of tradipitant relative to placebo in reducing chronic pruritus as measured by the VAS.
Inclusion criteria for the study include chronic (≥6 weeks) itch related to AD that is refractory to treatment by patient history, average itch score by VAS of ≥70 mm (out of 100 mm), verbal response score (VRS) of ≥3 on at least one of the past three days prior to randomization, and a SCORAD of <80.
Patients are randomized to receive either 85 mg of tradipitant or placebo (1:1) bid. The design for the randomized, placebo-controlled, double-blind study is depicted in FIG. 3. Individuals with chronic pruritus associated with AD are administered 85 mg of tradipitant bid or placebo for eight weeks. Average itch severity and worst itch severity are assessed by VAS, and VRS is assessed every two weeks. In addition, treatment is assessed biweekly using both the objective and subjective SCORing Atopic Dermatitis (SCORAD) Index (Severity Scoring of Atopic Dermatitis: The SCORAD Index, Consensus Report of the European Task Force on Atopic Dermatitis, Dermatology 1993; 186:23-31) and the Eczema Area and Severity Index (EASI) (Hanifin et al., The eczema area and severity index (EASI): assessment of reliability in atopic dermatitis, Experimental Dermatology 10(1):11-18 (2001)). The Clinical Global Impressions of Change (CGI-C) scale, the Patient Global Impression of Change (PGIC) scale with respect to both itch and AD, the Patient Benefit Index (PBI), and SKINDEX-16 scales are also used for assessments. Twice daily questionnaires are completed to report worst and average itch by numeric rating scale (NRS).
The objective SCORAD assessment includes parameters including extension, intensity, excoriations, erythema, oozing or crusting, the presence of edema or papules, lichenification, and skin dryness. The subjective SCORAD assessment includes patient assessments of itch and insomnia.

[3] = system: change of Worst Itch (VAS) in patients suffering from atopic dermatitis; experiment: INADL variants modifying change of Worst Itch (VAS) in the treated cohort (Example 6, Table 12)
Description: In addition, within the treated cohort described herein in Example 4, Table 6, the top loci identified as modifying change of Worst Itch (VAS) are variants located within INADL gene, shown below in Table 12.

[4] = ITT population, 85 mg bid, week 8
[5] = categorical, ITT, 85 mg bid, week 8
[6] = difference tradipitant vs placebo, 85 mg bid, week 8

Compound: O=C(c1ccccc1Cl)c1cccnc1-c1nnn(Cc2cc(C(F)(F)F)cc(C(F)(F)F)c2)c1-c1ccncc1 [Tradipitant]
- average plasma concentration over hours 0-12 relative to the PM group in Example 1 ([1]; 85 mg bid (Q12H), days 7 and 11): about 150%
- average plasma concentration over hours 0-12 relative to the PM group in Example 1 ([1]; 85 mg qd, day 3): about 50%
- time at which treatment effects in both itch and disease severity are evident ([2]; 85 mg bid): 2 Week
- clinical features of severity of atopic dermatitis, including excoriation, erythema, oozing and dryness ([2]; 85 mg bid vs placebo): significant improvements
- Average Itch VAS [2, 4]: −41.5
- CGI-C [2, 4]: 2.6
- PBI [2, 4]: 1.7 and 1.72
- PGI-C AD [2, 4]: 2.7 and 2.74
- PGI-C Itch [2, 4]: 2.6 and 2.56
- SKINDEX-16 [2, 4]: −34.8
- Worst Itch NRS Night [2, 4]: −3.4
- Worst itch NRS day [2, 4]: −3.3
- worst Itch VAS [2, 4]: −44.2
- Worst itch VAS ≥30 (responders) ([2]; categorical, ≥30 points improvement from baseline, ITT, 85 mg bid, week 8): 56.60%
- Worst itch VAS ≥40 (responders) ([2]; categorical, ≥40 points improvement from baseline, ITT, 85 mg bid, week 8): 52.6%
- EASI ≥75% (patients with 75% or greater improvement) [2, 5]: 21.1%
- SCORAD ≥50% (patients with 50% or greater improvement) [2, 5]: 44.0%
- CGIC, difference [2, 6]: −0.7
- EASI ≥75%, difference [2, 6]: 10.0%
- PBI, difference [2, 6]: 0.48
- PGIC AD, difference [2, 6]: −0.71
- PGIC itch, difference [2, 6]: −0.6
- SCORAD total, difference [2, 6]: −7.68
- SCORAD ≥50%, difference [2, 6]: 23.2%
- average itch VAS, difference [2, 6]: −5.7
- objective SCORAD, difference [2, 6]: −6.1
- subjective SCORAD, difference [2, 6]: −1.43
- worst itch NRS day, difference [2, 6]: −0.81
- worst itch NRS night, difference [2, 6]: −1.05
- worst itch VAS (≥40), difference [2, 6]: 17.9%
- worst itch VAS, difference [2, 6]: −13.6
- Genotype associated with worse Worst Itch (VAS) response ([3]; INADL SNP rs370530530, minor allele CT, major allele C, treated cohort): CTCT
- response as measured by change of Worst Itch (VAS), by genotype ([3]; INADL rs11207834 TT genotype): itch scale improvement
- response as measured by change of Worst Itch (VAS), by genotype ([3]; INADL rs11207834 minor allele, 85 mg bid): decreased response to treatment
